Measurements from patent US20140335050A1, “METHODS, COMPOSITIONS, AND KITS FOR THE TREATMENT OF CANCER” (The General Hospital Corporation, priority 2011, published 2014).

Legend:
Format in all cases: cell-based, human
A375 tumor cells = test: Western blot (BRAF, phosphorylated MEK and ERK)
Method: FIG. 17 is a series of Western blots that show changes in protein levels and state of phosphorylation after treatment with an Hsp90 inhibitor. A primary Anti BRAF (H145) antibody was used at a 1:5000 dilution. A secondary Goat anti rabbit antibody was used at a dilution of 1:5000. 30 ug total protein was added to each well.
Cell lysates were prepared using RIPA buffer from Santa Cruz (Santa Cruz, Calif.) containing protease and phosphatase inhibitors. Protein concentrations were determined using Bradford assay from BioRad (Hercules, Calif.). Equal amounts of protein were loaded in each well for PAGE analysis. Proteins were transferred to PVDF membranes from Pierce Biotechnology (Rockford, Ill.). Blocking and both primary and secondary antibody incubations were performed using Starting Block from Pierce (Rockford, Ill.). Blots were washed with 1×TBS with 0.5% tween 20. Primary antibodies used BRAF H-145 and TRP-2 from Santa Cruz (Santa Cruz, Calif.), and Phos ERK from Cell Signaling Technologies (Danvers, Mass.) beta actin from Sigma (St. Louis, Mo.). Goat anti-rabbit HRP conjugated secondary antibody was purchased from Pierce (Rockford, Ill.). Chemiluminesce was performed using the Femto kit form Pierce (Rockford, Ill.). […] Sizes of proteins were determined by comparison to the Broad prestained protein standard ladder from BioRad (Hercules, Calif.).

[1] = system: MM96L+ melanoma cell line; test: Intracellular antibody staining and flow cytometry (Melan-A/MART-1, gp100/HMB45); conditions: MM96L+ (BRAF M/WT, NRAS WT); 3 days; 17-AEP 1.00, CCT018159 5.00, PU-H71 0.30 μg/ml
Method: Several cell lines expressing varying native-sequences, (wild-type (WT) or mutant (M) alleles of these genes were evaluated), to determine if there is a relationship between levels of Hsp90 inhibitor-mediated antigen up-regulation and BRAF and NRAS mutational status. Mutant status of the NRAS and BRAF loci were determined previously.
Cells were plated at a density of 1×10^5 in 1 ml of medium in a 24-well plate and cultured for varying times as indicated in results. Typically, 3 days of culture in the presence of Hsp90 inhibitors was optimal for the functional studies performed. After incubation, cells were collected by trypsinization and then evaluated by flow cytometry.
(§1) Intracellular staining and flow cytometric analyses of cytoplasmic Melan-A/MART-1, and gp100 expression were performed as described previously. Cells were fixed with 1% formaldehyde, permeabilized with 0.1% saponin, stained with monoclonal antibodies to melanocyte antigens. Antibodies were obtained with specificity for: Melan-A/MART-1 from Vector Labs (Burlingame, Calif.); gp100/HMB45 from DakoCytomation (Carpinteria, Calif.) and then visualized with goat anti-mouse FITC-conjugated secondary antibody from Invitrogen (Frederick, Md.). The level of EGFP was determined by flow cytometry of unfixed cells washed and resuspended in 1×PBS. […]

453A melanoma cell line = test: as above; conditions: 453A (BRAF M/WT, NRAS WT); 3 days; 17-AEP 1.00, CCT018159 10.00, PU-H71 0.30 μg/ml
Method: Cells were fixed with 1% formaldehyde, permeabilized with 0.1% saponin, stained with monoclonal antibodies to melanocyte antigens. Antibodies were obtained with specificity for: MART-1 from Vector Labs (Burlingame, Calif.); gp100 HMB45 from DakoCytomation (Carpinteria, Calif.) and then visualized with goat anti-mouse FITC-conjugated secondary antibody from Invitrogen (Fredrick, Md.). The level of EGFP was determined by flow cytometry of unfixed cells that were washed and resuspended in 1×PBS.
Cells were plated at a density of 1×10^5 in 1 ml of medium in a 24-well plate and cultured for varying times as indicated in results. […] After incubation, cells were collected by trypsinization and then evaluated by flow cytometry.
as §1

[2] = system: MCF-7 breast cancer cells; test: Surface antibody staining and flow cytometry (MHC Class I/II)
How it was run: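 Cells pre-treated 4 days with IFN-beta, then re-plated for 3-day treatments. Harvested non-enzymatically and stained on ice for 30 min with W6/32 (Class I) or L243 (Class II), then FITC goat anti-mouse secondary; surface levels quantified by flow cytometry.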

[3] = system: HeLa cervical carcinoma cells; test: as above; conditions: for Class I MHC, geometric mean of surface staining (W6/32): 4 day IFN-β pre-treatment (5000 Units/ml), with PU-H71 0.3 where labelled (label IFN-β: no inhibitor)
[4] = MCF-7 cells, Table 20, single agent or simultaneous combination
[5] = HeLa cells, Table 20, single agent or simultaneous combination

SMILES: CO[C@H]1/C=C\C=C(/C)C(=O)NC2=CC(=O)C(NCCN3CCCC3)=C(C[C@@H](C)C[C@H](OC)[C@H](O)[C@@H](C)/C=C(\C)[C@@H]1OC(N)=O)C2=O [17-AEP]
- BRAF protein level (Western blot) (A375 tumor cells; 3 days): reduces levels of BRAF
- Phosphorylated MEK and Phosphorylated ERK levels (Western blot) (A375 tumor cells; 3 days (FIG. 17)): decreased levels

SMILES: CCc1cc(-c2n[nH]c(C)c2-c2ccc3c(c2)OCCO3)c(O)cc1O [CCT018159]
- HMB45, level of induction relative to untreated control cells [1]: 1.81
- MART-1, level of induction relative to untreated control cells [1]: 3.04
- HMB45, level of induction relative to untreated control cells (453A melanoma cell line): 3.38
- MART-1, level of induction relative to untreated control cells (453A melanoma cell line): 3.29

SMILES: CC(C)NCCCn1c(Sc2cc3c(cc2I)OCO3)nc2c(N)ncnc21 [PU-H71]
- Class I MHC, geometric mean of surface staining (W6/32) ([2]; MCF-7, 4 day IFN-β pre-treatment (5000 Units/ml), then 3 days with fresh IFN-β, with PU-H71 0.3 mg/ml where labelled (label IFN-β: no inhibitor)): 213
- Class I MHC, geometric mean of surface staining (W6/32) ([2]; MCF-7, 4 day IFN-β pre-treatment (5000 Units/ml), then 3 days without IFN-β, with PU-H71 0.3 mg/ml where labelled (label IFN-β: no inhibitor)): 227
- Class II induction, combination ([2]; MCF-7, PU-H71 and IFN-gamma): inhibited
- Class I stimulation induced with IFN-beta or IFN-gamma, combination ([2]; MCF-7, addition of PU-H71): diminished
- L243 (MHC Class II surface staining) ([2]; MCF-7, single agent): 4.7
- Class I MHC, geometric mean of surface staining (W6/32) ([2]; MCF-7, single agent for 3 days, no IFN-β pre-treatment, IFN-β 5000 Units/ml, PU-H71 0.3 mg/ml): 61
- MHC Class I, geometric mean of surface staining (W6/32) ([2]; MCF-7, three days, IFN-β 5000 Units/ml, PU-H71 0.075-0.3 mg/ml): 61
- L243 (MHC Class II surface staining) [2, 4]: 4.7
- W6/32 (MHC Class I surface staining) [2, 4]: 113.0
- L243 (MHC Class II surface staining) ([3]; HELA, single agent): 3.5
- L243 (MHC Class II surface staining) [3, 5]: 3.8
- W6/32 (MHC Class I surface staining) [3, 5]: 286.6
- L243 (MHC Class II surface staining) ([3]; HeLa cells, Table 21, no pre-treatment, treatment as labelled): 4
- L243 (MHC Class II surface staining) ([3]; HeLa cells, Table 21, pre-treatment IFN-G (3 days), then treatment as labelled): 185
- L243 (MHC Class II surface staining) ([3]; HeLa cells, Table 21, substance given as pre-treatment (3 days) only, no subsequent treatment): 6
- Class I MHC, geometric mean of surface staining (W6/32) ([3]; HeLa, then 3 days with fresh IFN-β): 137
- Class I MHC, geometric mean of surface staining (W6/32) ([3]; HeLa, then 3 days without IFN-β): 168
- Class II antigen level, sequential treatment ([3]; HeLa, IFN-gamma for 3 days, subsequently PU-H71): significantly greater than that achieved with IFN-gamma alone
- Class I expression, combination ([3]; HeLa, PU-H71 together with IFN-beta): do not show the synergy
- MHC Class II, geometric mean of surface staining (L2443) ([3]; HeLa, three days, IFN-β 5000 Units/ml, IFN-γ 100 ng/ml, PU-H71 0.3 mg/ml): 19
- MHC Class I, geometric mean of surface staining (W6/32) ([3]; HeLa, three days, IFN-β 5000 Units/ml, IFN-γ 100 ng/ml, PU-H71 0.3): 402
- MHC Class I, geometric mean of surface staining (W6/32) ([3]; HeLa, three days, IFN-β 5000 Units/ml, PU-H71 0.075-0.3): 182
